Experimental data as given in patent US20180000085A1, “USE OF PICOLINAMIDE COMPOUNDS WITH FUNGICIDAL ACTIVITY” (DOW AGROSCIENCES LLC, priority 2014, published 2018).

Assays:
Zymoseptoria tritici = experiment: Leaf blotch of wheat (SEPTTR) disease control on wheat seedlings; format: in vivo; parameters: key to SEPTTR 1DP, HV activity at 100 ppm (% control rating) / SEPTTR 3DC, HV activity at 100 ppm (% control rating) / SEPTTR disease control, 1DP / SEPTTR disease control, 3DC / SEPTTR 1DP disease control rating, HV activity / SEPTTR 3DC disease control rating, HV activity / SEPTTR 3DC, LV activity at 125.1 g/H (% Control rating) / SEPTTR 1DP, LV activity at 125.1 g/H (% Control rating) / SEPTTR 1DP disease control rating, LV activity at 125.1 g/H / SEPTTR 3DC disease control rating, LV activity at 125.1 g/H / SEPTTR 3DC disease control rating, HV activity at 100 ppm / SEPTTR 1DP disease control rating, HV activity at 100 ppm / HV activity at 100 ppm SEPTTR 3DC (disease control rating) / HV activity at 100 ppm SEPTTR 1DP (disease control rating) / LV activity at 125.1 g/H SEPTTR 1DP (disease control rating) / LV activity at 125.1 g/H SEPTTR 3DC (disease control rating): A: > 80; B: ≤ 80; C: Not Tested; D: No Activity Observed in the Reported Assay; conditions: wheat leaf blotch; for SEPTTR 1DP disease control rating, HV activity / SEPTTR 3DC disease control rating, HV activity: HV application at 100 ppm
Puccinia triticina = experiment: Wheat brown rust (PUCCRT) disease control on wheat seedlings; format: in vivo; parameters: key to PUCCRT 3DC, HV activity at 100 ppm (% control rating) / PUCCRT disease control, 3DC / PUCCRT 1DP disease control rating, HV activity / PUCCRT 3DC disease control rating, HV activity / PUCCRT 3DC, LV activity at 125.1 g/H (% Control rating) / PUCCRT 1DP, LV activity at 125.1 g/H (% Control rating) / PUCCRT 3DC disease control rating, LV activity at 125.1 g/H / PUCCRT 1DP disease control rating, LV activity at 125.1 g/H / PUCCRT 3DC disease control rating, HV activity at 100 ppm / PUCCRT 1DP disease control rating, HV activity at 100 ppm / HV activity at 100 ppm PUCCRT 3DC (disease control rating) / LV activity at 125.1 g/H PUCCRT 1DP (disease control rating) / LV activity at 125.1 g/H PUCCRT 3DC (disease control rating): A: > 80; B: ≤ 80; C: Not Tested; D: No Activity Observed in the Reported Assay; conditions: wheat brown rust; for PUCCRT 1DP disease control rating, HV activity / PUCCRT 3DC disease control rating, HV activity: HV application at 100 ppm
[1] = Low volume application at 125.1 g/H, 1 Day Protectant
[2] = Low volume application at 125.1 g/H, 3 Day Curative

Compound	SEPTTR 1DP disease control rating, HV activity (Zymoseptoria tritici; 1 Day Protectant)	SEPTTR 3DC disease control rating, HV activity (Zymoseptoria tritici; 3 Day Curative)	PUCCRT 1DP disease control rating, HV activity (Puccinia triticina; 1 Day Protectant)	PUCCRT 3DC disease control rating, HV activity (Puccinia triticina; 3 Day Curative)	SEPTTR 1DP disease control rating, LV activity (Zymoseptoria tritici; [1])	SEPTTR 3DC disease control rating, LV activity (Zymoseptoria tritici; [2])	PUCCRT 1DP disease control rating, LV activity (Puccinia triticina; [1])	PUCCRT 3DC disease control rating, LV activity (Puccinia triticina; [2])
COc1ccnc(C(=O)NC(C)C(=O)OC(C)C(Oc2cc(F)ccc2F)C(C)C)c1O (centres unmarked) [Cmpd 392]	A (> 80)	A (> 80)	A (> 80)	A (> 80)				
COc1ccnc(C(=O)NC(C)C(=O)OC(C)C(Oc2cc(F)cc(Cl)c2)C(C)C)c1O (centres unmarked) [Cmpd 393]	B (≤ 80)	A (> 80)	A (> 80)	B (≤ 80)				
COc1ccnc(C(=O)NC(C)C(=O)OC(C)C(Oc2ccc(C(F)(F)F)cc2)C(C)C)c1O (centres unmarked) [Cmpd 394]	A (> 80)	B (≤ 80)	B (≤ 80)	B (≤ 80)				
CCC(C)C(NC(=O)c1nccc(OC)c1O)C(=O)OC(C)C(Oc1cc(F)ccc1F)C(C)C (centres unmarked) [Cmpd 395]	B (≤ 80)	B (≤ 80)	B (≤ 80)	D				
CCC(C)C(NC(=O)c1nccc(OC)c1O)C(=O)OC(C)C(Oc1ccc(C(F)(F)F)cc1)C(C)C (centres unmarked) [Cmpd 396]	B (≤ 80)	B (≤ 80)	B (≤ 80)	D				
COc1ccnc(C(=O)NC(C)C(=O)OC(C)C(Oc2cccc3ccccc23)C(C)C)c1O (centres unmarked) [Cmpd 397]	B (≤ 80)	B (≤ 80)	A (> 80)	A (> 80)				
COc1ccnc(C(=O)NC(C)C(=O)OC(C)C(Oc2ccc3ccccc3c2)C(C)C)c1O (centres unmarked) [Cmpd 398]	D	B (≤ 80)	A (> 80)	B (≤ 80)				
COc1ccnc(C(=O)NC(C)C(=O)OC(C)C(OC(=O)C(C)C)C(C)C)c1O (centres unmarked) [Cmpd 399]	B (≤ 80)	D	B (≤ 80)	D				
COc1ccnc(C(=O)NC(C(=O)OC(C)C(Oc2cccc3ccccc23)C(C)C)C(C)C)c1O (centres unmarked) [Cmpd 400]	B (≤ 80)	B (≤ 80)	A (> 80)	B (≤ 80)				
COc1ccnc(C(=O)NC(C(=O)OC(C)C(Oc2ccc3ccccc3c2)C(C)C)C(C)C)c1O (centres unmarked) [Cmpd 401]	B (≤ 80)	B (≤ 80)	A (> 80)	B (≤ 80)				
CC[C@H](OC)[C@@H](Oc1ccc(Cl)cc1Cl)[C@H](C)OC(=O)[C@H](C)NC(=O)c1nccc(OC)c1O [Cmpd 402]	B (≤ 80)	B (≤ 80)	B (≤ 80)	B (≤ 80)				
CC[C@H](OC)[C@@H](Oc1ccccc1)[C@H](C)OC(=O)[C@H](C)NC(=O)c1nccc(OC)c1O [Cmpd 403]					B (≤ 80)	A (> 80)	A (> 80)	A (> 80)
CCC(CC)[C@@H](Oc1cccc(F)c1)[C@H](C)OC(=O)[C@@H](NC(=O)c1nccc(OC)c1O)C(C)C [Cmpd 404]	A (> 80)	D	B (≤ 80)	D				
CCC(CC)[C@@H](Oc1ccc(F)cc1)[C@H](C)OC(=O)[C@@H](NC(=O)c1nccc(OC)c1O)C(C)C [Cmpd 405]	B (≤ 80)	B (≤ 80)	A (> 80)	B (≤ 80)				
